The assay deals with biotinylated FKBP in the presence of everolimus (RAD001). Briefly: EC50 direct binding assay (AlphaLISA): FLAG FRB protein and biotinylated FKBP with serially diluted everolimus. To be noted: 30 nM FLAG-tagged FRB, 30 nM biotinylated FKBP; everolimus serial diluted 1:3 from 600 nM. As for the experimental part: In a direct binding assay, unlabeled candidate mutant FRB is incubated in solution with tagged wild-type FKBP in the presence of the dimerization molecule, e.g., under conditions suitable for binding of FRB to the dimerization molecule and dimerization of FRB and FKBP. Tagged FKBP can be removed from the reaction by affinity purification; candidate mutant FRB that is able to bind the dimerization molecule and dimerize with the tagged FKBP will also be removed. […] EC50 values for direct binding affinity can then be calculated using methods known in the art.
Chain of biotinylated FKBP in the presence of everolimus (RAD001) (P62942 2-108 limits assumed): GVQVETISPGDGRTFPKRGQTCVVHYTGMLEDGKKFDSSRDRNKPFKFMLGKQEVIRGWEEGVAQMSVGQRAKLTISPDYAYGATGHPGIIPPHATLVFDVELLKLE
FRB mutations were also ranked in an alternative assay format. Briefly, FRB proteins incorporating single and double mutations (SEQ ID NO: 54-58) were produced as FLAG tagged constructs in E. coli as described previously. 30 nM (final) of biotinylated FKBP (SEQ ID NO: 59) and each FLAG FRB protein were combined in the presence of everolimus serial diluted 1:3 from a starting final concentration of 600 nM into a 96 well ½ surface flat-bottom plate (PerkinElmer) and incubated for one hour at room temperature. All dilutions were made in 1× AlphaLISA Immunoassay buffer (PerkinElmer). Anti-Flag acceptor beads (PerkinElmer) were added at 10 ug/ml final concentration and incubated for one hour at room temperature. Streptavidin donor beads (PerkinElmer), were then added at a final concentration of 40 ug/ml and the plate was protected from light and incubated for 30 minutes at room temperature. The plate was then read on the PerkinElmer EnVision Multiplate reader equipped with the Alpha Module using excitation of 680 nm and a 570 nm Emission filter.
A general note: Alpha assays give light when donor and acceptor beads are brought close together.
For “E2032I: mutant FRB derived switch domain with E2032I; His-tagged (competition) or His-FLAG-tagged (direct assay)”, the EC50 worked out at 2.46 nM.

Take “E2032L: mutant FRB derived switch domain with E2032L; His-tagged (competition) or His-FLAG-tagged (direct assay)”: the concentration giving a half-maximal response (EC50) was 2.15 nM.

As for “T2098L: mutant FRB derived switch domain with T2098L; His-tagged (competition) or His-FLAG-tagged (direct assay)”, the half-maximal effective concentration (EC50) came to 1.44 nM.

For the substance “Wild type FRB (1): wild type FRB domain of FRAP/mTOR (residues 2021-2113); His-tagged in competition assay, His-FLAG-tagged in direct assay [reference compound]”, the concentration giving a half-maximal response (EC50) was found to be 3.9 nM.

For orientation: EC50 means the concentration giving half of the maximal effect.

For the origin of these results see patent US20190054117A1, “DIMERIZATION SWITCHES AND USES THEREOF” (priority 2014, published 2019).
